# Patent US4220755A, “Fortimicin B derivatives and process for production thereof” (Abbott Laboratories, priority 1976, dated 1980)
# Read-outs that look alike come from different tables or passages of the source.
# Tests used:
# Escherichia coli Juhl = experiment: ED50 in infected mice; format: in vivo, ddY-strain mice; details: ip, 168 h, read-out: ED50 EC
# Procedure: (§1) In this experiment, one group consisting of five ddY-strain mice is used. The microorganisms shown below are inoculated into each animal. One hour after the inoculation, test compounds dissolved in distilled water for injection are injected intraperitoneally to test animals by one shot. The test animals are observed one week after the injection, and the ED50 is calculated according to the method of Behrens-Karber.
# *^2 EC means Escherichia coli Juhl. 2.1 × 10^4 cells are
# inoculated into each mouse.
# various microorganisms = experiment: Antibacterial activity (general statements); format: cell-based; details: qualitative statement
# Procedure: (§2) Measurement was carried out according to the agar dilution method, using a medium of pH 8.0, or the Japanese Antibiotic Medicament Standard, using a medium of pH 7.2 Units are in mcg/ml.
# [1] = system: Pseudomonas aeruginosa R4 KY8511; experiment: MIC, agar dilution method, pH 7.2; format: cell-based
# Procedure: as §2
# (§3) 4: gentamicin, producing acetyltransferase type I.
# [2] = system: Escherichia coli R19 KY8348; experiment: MIC, agar dilution method, pH 7.2; format: cell-based
# Procedure: as §2, §3
# in vivo = details: mouse, iv
# Procedure: In this experiment, one group consisting of five ddY-strain mice is used. Test compounds dissolved in 0.2 ml of distilled water for injection are injected intravenously into each animal in 10 seconds. The LD50 is calculated according to the method of Behrens-Karber.
# Serratia marcescens 1065 = experiment: MIC, agar dilution method, pH 7.2; format: cell-based
# Procedure: as §2
# 3: kanamycin, producing acetyltransferase.
# [3] = Stability in alkaline aqueous conditions; format: physicochemical; details: for Stability in aqueous solution: free base
# Procedure: The stability of 4-N-acylfortimicin B derivatives in aqueous alkaline conditions is poor. […] Therefore, purification of these compounds under basic conditions (for example, column chromatography with Amberlite CG-50, eluting with aqueous ammonia) is not practical.
# In contrast with the instability of 4-N-acylfortimicin B derivatives, 4-N-alkylfortimicin B derivatives are so stable that no decomposition occurs even in aqueous barium hydroxide solution at reflux temperature for 18 hours. Therefore, in the case of 4-N-alkylfortimicin B, any substituents can be introduced at 4-N-position of fortimicin B, even though such substituents can not be introduced as the acyl type to such position due to the aforementioned instability.
# [4] = system: Klebsiella pneumoniae 8045; experiment: ED50 in infected mice; format: in vivo, ddY-strain mice; details: 168 h, read-out: ED50 KP
# Procedure: as §1
# *^1 KP means Klebsiella pneumoniae 8045. 1.3 × 10^5 cells
# are inoculated into each mouse.
# Eschericihia coli 3100 = experiment: MIC, agar dilution method, pH 7.2; format: cell-based, Escherichia coli
# Procedure: as §2
# [5] = Serratia marcescens, 1065, pH 7.2, read-out: Minimum inhibition concentration (MIC)
# [6] = R4KY8511, pH 7.2, P. aeruginosa R4 KY8511, 4**: gentamicin, producing acetyltransferase type I, read-out: Minimum inhibition concentration (MIC)
# [7] = R19KY8348, pH 7.2, E. coli R19 KY8348, 4**: gentamicin, producing acetyltransferase type I, read-out: Minimum inhibition concentration (MIC)
# [8] = Escherichia coli, pH 7.2, E. coli 3100, read-out: Minimum inhibition concentration (MIC)
Structure (SMILES),ED50 (Escherichia coli Juhl; Escherichia coli) [mg/kg],Antibacterial activity (various microorganisms),"MIC ([1]; R4KY8511, pH 7.2, read-out: Minimum inhibition concentration (MIC)) [µg/mL]","MIC ([2]; R19KY8348, pH 7.2, read-out: Minimum inhibition concentration (MIC)) [µg/mL]",LD50 (in vivo) [mg/kg],MIC (Serratia marcescens 1065; [5]) [µg/mL],"Stability in aqueous solution ([3]; pH 10, 100° C., 4 hours)","Stability in aqueous solution ([3]; pH 10, room temperature, 2 weeks)",Stability under strongly alkaline conditions [3],"ED50 ([4]; Klebsiella pneumoniae, 8045, ip) [mg/kg]","MIC (Eschericihia coli 3100; Escherichia coli, 3100, pH 7.2, read-out: Minimum inhibition concentration (MIC)) [µg/mL]","MIC [1, 6] [µg/mL]","MIC [2, 7] [µg/mL]","MIC (Serratia marcescens 1065; pH 7.2, Serratia marcescens 1065, 3**: kanamycin, producing acetyltransferase, read-out: Minimum inhibition concentration (MIC)) [µg/mL]",MIC (Eschericihia coli 3100; [8]) [µg/mL],"ED50 (Escherichia coli Juhl; mice, intraperitoneal one shot 1 hour after inoculation of Escherichia coli Juhl (2.1 × 10^4 cells), sulfate, one week observation) [mg/kg]","ED50 ([4]; ip, mice, intraperitoneal one shot 1 hour after inoculation of Klebsiella pneumoniae 8045 (1.3 × 10^5 cells), sulfate, one week observation) [mg/kg]"
"CO[C@H]1[C@@H](O)[C@H](N)[C@@H](O[C@H]2O[C@H]([C@H](C)N)CC[C@H]2N)[C@H](O)[C@@H]1N(C)C(=O)CN [Compound 2, 4-N-glycylfortimicin B, reference compound]",5.06,have antibacterial activity,> 100,> 100,330,6.25,almost completely decomposed,almost completely decomposed,slightly unstable,2.06,6.25,–,–,–,–,–,–
"CO[C@H]1[C@@H](O)[C@H](N)[C@@H](O[C@H]2O[C@H]([C@H](C)N)CC[C@H]2N)[C@H](O)[C@@H]1N(C)C(=O)CNC(N)=O [Compound 3, 4-N-hydantoylfortimicin B, reference compound]",–,have antibacterial activity,–,–,–,–,–,–,slightly unstable,–,–,> 100,> 100,50,12.5,–,–
"CO[C@H]1[C@@H](O)[C@H](N)[C@@H](O[C@H]2O[C@H]([C@H](C)N)CC[C@H]2N)[C@H](O)[C@@H]1N(C)C[C@@H](O)CCN [Compound 27, 4-N-[(S)-4-amino-2-hydroxybutyl]fortimicin B]",–,–,–,–,135,6.25,–,–,–,–,–,> 100,> 100,–,12.5,2.81,1.88
